Earlier results, collected in patent US12390417B2, “Praziquantel formulations” (Villya LLC, priority 2020, dated 2025).
≈ marks a conversion by molar mass, not a printed value.

Conditions: in water; according to the Merck Index

O=C(C1CCCCC1)N1CC(=O)N2CCc3ccccc3C2C1 (racemic) [Praziquantel, (RS)-2-(Cyclohexylcarbonyl)-1,2,3,6,7,11b-hexahydro-4H-pyrazino[2,1-a]isoquinolin-4-one]
solubility: 400 µg/mL (≈ 1280 µM)
